“Also recorded” adds a separate entry of the source.
Legend:
[1] = system: phosphorylated Foxo4 (threonine 28); test: Western blot of phosphorylated Foxo4 in APP/PS1 mouse brains; assay type: in vivo; settings: APP/PS1 mouse brain, Compound C diet vs control diet
Procedure: Male APPΔNLh/ΔNLh×PS1P246 L/246 L knock-in model mice of Alzheimer's disease (abbreviated APP/PS1) were genotyped using standard primers for human APP (Amyloid Precursor Protein) and human PS1 (PSEN1).
At 12 months of age, the mice were euthanized and the brains quickly removed, the cerebellum isolated and the hemispheres snap-frozen in liquid nitrogen and then stored at −80° C. for further immunohistochemistry (IHC), protein and RNA analysis. All procedures conducted on these animal studies were pre-approved by the University of Kentucky IACUC committee.
Frozen hemispheres of control- and Compound C-treated APP/PS1 mice were weighed and homogenized in PBS buffer, and then subsequently extracted with RIPA buffer (Sigma) containing complete proteinase and phosphatase inhibitors (Fisher Scientific). Protein levels in the samples were determined by micro-BCA protein analysis according to the manufacturer's protocol. […] Positive signals on the membrane blots were detected using Amersham's enhanced chemiluminescence Western Blotting Prime Detection reagents (GE healthcare Lifescience, Pittsburgh, Pa.). Images of these luminescence signals on the membrane blots were captured using the LI-COR Odyssey Fc Image system (Lincoln, Nebr.). […]

INSR = test: QRT-PCR of INSR mRNA in IMR-32 cells; assay type: cell-based, human; settings: 75 ppb and 150 ppb, 24 hours
Procedure: Human IMR-32 cells were seeded on gelatinized 6-well (6.5×10^5 cells/well) or 24-well (1.3×10^5 cells/well) plates. Cells were treated with control (0 ppb) or various compounds for 6 hours or 24 hours. Total RNA from these cells was isolated using Trizol (Invitrogen) according to the manufacturer's protocol, and then incubated with DNase I to remove any potential contaminated genomic DNA. Then RNA samples were subjected to real-time PCR analysis using the Applied-Bioscience's RT kit and predesigned Taqman probes (Invitrogen), as described previously (Lan et al EMBO J 2003). The mRNA levels of UCP1, UCP2, UCP3, SLC25A27 (UCP4), SLC25A14 (UCP5), PSEN1, Nicastrin, GSK3B, MAPK11-14, PPARG, APOE, RCAN1, RCAN1.1, G6PC, INSR, IGF1R and FOXO4 were measured. Three to six samples were analyzed in each treatment group. Data were normalized by Actin B (ACTB) or Glyceraldehyde Phosphate Dehydrogenase (GAPDH) mRNA levels in each sample and are presented as mean±SEM of 3-6 samples.
To examine whether or not Compound C can regulate INSR/IGF1R signaling in IMR-32 cells, QRT-PCR analysis was performed to measure INSR and IGF1R mRNA levels. […] Mean±SEM, n=4. The * refers to a p value <0.05 when compared to the control group (0 ppb).

[2] = system: gene transcripts in the brains of APP/PS1 mice; test: Microarray analysis of RNA expression in the brains of APP/PS1 mice; assay type: in vivo, mouse
BACE1 = test: Western blot of BACE1 in APP/PS1 mouse brains; assay type: in vivo; settings: APP/PS1 mice, Compound C diet vs control diet
Procedure: Male APPΔNLh/ΔNLh×PS1P246 L/246 L knock-in model mice of Alzheimer's disease (abbreviated APP/PS1) were genotyped using standard primers for human APP (Amyloid Precursor Protein) and human PS1 (PSEN1). These APP/PS1 mice starting at the age of 6 months, were fed either a control diet containing normal levels of selenium (0.3 ppm from plant and inorganic selenium salt sources) or an experimental diet containing Compound C (the control diet to which was added 1 ppm Se from Compound C) for 6 months. […]
Frozen hemispheres of control- and Compound C-treated APP/PS1 mice were weighed and homogenized in PBS buffer, and then subsequently extracted with RIPA buffer (Sigma) containing complete proteinase and phosphatase inhibitors (Fisher Scientific). Protein levels in the samples were determined by micro-BCA protein analysis according to the manufacturer's protocol. […] Positive signals on the membrane blots were detected using Amersham's enhanced chemiluminescence Western Blotting Prime Detection reagents (GE healthcare Lifescience, Pittsburgh, Pa.). Images of these luminescence signals on the membrane blots were captured using the LI-COR Odyssey Fc Image system (Lincoln, Nebr.). Protein band densities in Western blots were determined using NIH Image J software, and then normalized by Actb levels in each samples to obtain the protein levels.

[3] = APP/PS1 mouse brain, Compound C diet vs control diet

With `C[Se]C[C@H]1O[C@@H](n2cnc3c(N)ncnc32)C(O)C1O` (stereo in doubt) [Compound C, 5′-deoxy-5′-methylselenoadenosine] the “phosphorylated Foxo4 at threonine 28 (pFoxo4) protein” value [1] was “inhibition; also recorded: less abundant; also recorded: significantly decreased”, the “INSR mRNA expression levels” value (INSR) was “downregulated” and the “number of genes with regulated expression in the brains” value ([2]; APP/PS1 mice, fold change of more than 1.2) was 2217 genes. For the same compound, the “Fold Change, Akap5” value [2, 3] was 1.589 fold, the “Fold Change, Apbb1” value [2, 3] was −1.293 fold and the “Fold Change, App” value [2, 3] was −1.22 fold. For the same compound, the “Fold Change, Bcl2” value [2, 3] was 1.246 fold, the “Fold Change, Camk2a” value [2, 3] was −1.67 fold and the “Fold Change, Cnr1” value [2, 3] was −1.492 fold. For the same compound, the “Fold Change, Ddx5” value [2, 3] was 1.26 fold, the “Fold Change, Dlx5” value [2, 3] was 2.09 fold and the “Fold Change, Drd1” value [2, 3] was 4.22 fold. The “Fold Change, Foxp2” value [2, 3] was 2.52 fold, the “Fold Change, Gabra1” value [2, 3] was −1.407 fold and the “Fold Change, Gabra2” value [2, 3] was 1.275 fold. The “Fold Change, Gabrg1” value [2, 3] was 1.375 fold, the “Fold Change, Gad2” value [2, 3] was 1.69 fold and the “Fold Change, Gpr6” value [2, 3] was 9.07 fold. The “Fold Change, Gpr88” value [2, 3] was 6.47 fold, the “Fold Change, Grm4” value [2, 3] was 1.418 fold and the “Fold Change, Htr2c” value [2, 3] was 1.797 fold. For the same compound, the “Fold Change, Isl1” value [2, 3] was 11.32 fold, the “Fold Change, Mapk8” value [2, 3] was −1.289 fold and the “Fold Change, Mapt” value [2, 3] was −1.21 fold. The “Fold Change, Meis2” value [2, 3] was 2.04 fold, the “Fold Change, Nrxn1” value [2, 3] was −1.444 fold and the “Fold Change, Pak1” value [2, 3] was −1.201 fold. The “Fold Change, Pde10a” value [2, 3] was 2.91 fold, the “Fold Change, Penk” value [2, 3] was 4.068 fold and the “Fold Change, Prdx1” value [2, 3] was 1.272 fold. For the same compound, the “Fold Change, Prkacb” value [2, 3] was −1.396 fold, the “Fold Change, Prkar2b” value [2, 3] was 1.439 fold and the “Fold Change, Prkcd” value [2, 3] was 1.813 fold. The “Fold Change, Prnp” value [2, 3] was −1.256 fold, the “Fold Change, Rarb” value [2, 3] was 4.03 fold and the “Fold Change, Rims1” value [2, 3] was −1.459 fold. For the same compound, the “Fold Change, Scarb1” value [2, 3] was 1.56 fold, the “Fold Change, Scp2” value [2, 3] was 1.204 fold and the “Fold Change, Sez6” value [2, 3] was 1.33 fold. The “Fold Change, Sod1” value [2, 3] was 1.274 fold, the “Fold Change, Sorl1” value [2, 3] was −1.41 fold and the “Fold Change, Sox2” value [2, 3] was 1.274 fold. For the same compound, the “Fold Change, Tac1” value [2, 3] was 3.36 fold, the “Fold Change, ZIC1” value [2, 3] was 3.25 fold and the “Fold Change, Zic3” value [2, 3] was 2.28 fold. The “Fold Change, Zic4” value [2, 3] was 1.75 fold, the “Fold Change, Zic5” value [2, 3] was 1.53 fold and the “Foxo 1, 3 and 4 mRNA levels” value [2, 3] was “no significant change”. For the same compound, the “BACE-1 protein levels in the brains” value (BACE1) was “reduced; also recorded: decreased”.
